# ChEMBL document CHEMBL1201862, “PubChem BioAssay data set” (2004)
#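 Interpolation was linear, between the two tested concentrations surrounding the appropriate level; five concentrations were tested over 48 hours in 96-well plates. GI50 = concentration required for 50% inhibition of growth.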 Activity calls are given as the source filed them. No stated cut-off is given here; in the data, active = GI50 up to about 1.1 µM and inactive = higher.
# Columns and labels:
# Experiment in all cases: NCI tumour cell line growth inhibition, 48 h
# TK-10 = tested on: TK-10
# SF-268 = tested on: SF-268
# NCI-H226 = tested on: NCI-H226
# HOP-92 = tested on: HOP-92
# CAKI-1 = tested on: CAKI-1
# CCRF-CEM = tested on: CCRF-CEM
# Malme-3M = tested on: Malme-3M
# SNB-19 = tested on: SNB-19
# UACC-62 = tested on: UACC-62
# DU-145 = tested on: DU-145
# PC-3 = tested on: PC-3
# HCT-15 = tested on: HCT-15
# SK-MEL-5 = tested on: SK-MEL-5
# HL-60 = tested on: HL-60
# IGROV-1 = tested on: IGROV-1
# NCI-H460 = tested on: NCI-H460
# HOP-62 = tested on: HOP-62
# SR = tested on: SR
# RXF 393 = tested on: RXF 393
# SF-539 = tested on: SF-539
# K562 = tested on: K562
# KM12 = tested on: KM12
# RPMI-8226 = tested on: RPMI-8226
# T47D = tested on: T47D
# UACC-257 = tested on: UACC-257
# A549 = tested on: A549
# SK-MEL-2 = tested on: SK-MEL-2
# NCI-H23 = tested on: NCI-H23
# SK-OV-3 = tested on: SK-OV-3
# NCI-H522 = tested on: NCI-H522
# HT-29 = tested on: HT-29
# Hs-578T = tested on: Hs-578T
# MDA-N = tested on: MDA-N
# BT-549 = tested on: BT-549
# MOLT-4 = tested on: MOLT-4
# LOX IMVI = tested on: LOX IMVI
# 786-0 = tested on: 786-0
# HCT-116 = tested on: HCT-116
# UO-31 = tested on: UO-31
# MDA-MB-435 = tested on: MDA-MB-435
# MDA-MB-231 = tested on: MDA-MB-231
# SK-MEL-28 = tested on: SK-MEL-28
# ACHN = tested on: ACHN
# NCI/ADR-RES = tested on: NCI/ADR-RES
# OVCAR-5 = tested on: OVCAR-5
# SF-295 = tested on: SF-295
# OVCAR-8 = tested on: OVCAR-8
# OVCAR-4 = tested on: OVCAR-4
# SN12C = tested on: SN12C
# M14 = tested on: M14
# SW-620 = tested on: SW-620
# A498 = tested on: A498
# EKVX = tested on: EKVX
# OVCAR-3 = tested on: OVCAR-3
# COLO 205 = tested on: COLO 205
# U-251 = tested on: U-251
# HCC 2998 = tested on: HCC 2998
# SNB-75 = tested on: SNB-75
smiles,measurement,setting,value
C[C@H](NC1=CC(=O)C(N[C@@H](C)[C@H](O)c2ccccc2)=CC1=O)[C@H](O)c1ccccc1,GI50,TK-10,55.7 µM (inactive)
same,GI50,SF-268,> 100 µM (inactive)
same,GI50,NCI-H226,62.1 µM (inactive)
same,GI50,HOP-92,> 100 µM (inactive)
same,GI50,CAKI-1,> 100 µM (inactive)
same,GI50,CCRF-CEM,57.8 µM (inactive)
same,GI50,Malme-3M,67.6 µM (inactive)
same,GI50,SNB-19,> 100 µM (inactive)
same,GI50,UACC-62,87.9 µM (inactive)
same,GI50,DU-145,> 100 µM (inactive)
same,GI50,PC-3,43.1 µM (inactive)
same,GI50,HCT-15,68.9 µM
same,GI50,SK-MEL-5,49.5 µM (inactive)
same,GI50,HL-60,> 100 µM (inactive)
same,GI50,IGROV-1,> 100 µM (inactive)
same,GI50,NCI-H460,63.8 µM (inactive)
same,GI50,HOP-62,> 100 µM (inactive)
same,GI50,SR,14.6 µM (inactive)
same,GI50,RXF 393,> 100 µM (inactive)
same,GI50,SF-539,63.8 µM (inactive)
same,GI50,K562,> 100 µM (inactive)
same,GI50,KM12,59.3 µM (inactive)
same,GI50,RPMI-8226,> 100 µM (inactive)
same,GI50,T47D,53.1 µM (inactive)
same,GI50,UACC-257,> 100 µM (inactive)
same,GI50,A549,95.3 µM (inactive)
same,GI50,SK-MEL-2,> 100 µM (inactive)
same,GI50,NCI-H23,67 µM (inactive)
same,GI50,SK-OV-3,69 µM (inactive)
same,GI50,NCI-H522,61.8 µM (inactive)
same,GI50,HT-29,27.3 µM (inactive)
same,GI50,Hs-578T,37.2 µM (inactive)
same,GI50,MDA-N,> 100 µM (inactive)
same,GI50,BT-549,52.8 µM (inactive)
same,GI50,MOLT-4,37.2 µM (inactive)
same,GI50,LOX IMVI,> 100 µM (inactive)
same,GI50,786-0,> 100 µM (inactive)
same,GI50,HCT-116,68.4 µM (inactive)
same,GI50,UO-31,64 µM (inactive)
same,GI50,MDA-MB-435,81.5 µM (inactive)
same,GI50,MDA-MB-231,76.2 µM (inactive)
same,GI50,SK-MEL-28,> 100 µM (inactive)
same,GI50,ACHN,96.6 µM (inactive)
same,GI50,NCI/ADR-RES,92.7 µM (inactive)
same,GI50,OVCAR-5,> 100 µM (inactive)
same,GI50,SF-295,70.1 µM (inactive)
same,GI50,OVCAR-8,> 100 µM (inactive)
same,GI50,OVCAR-4,> 100 µM (inactive)
same,GI50,SN12C,> 100 µM (inactive)
same,GI50,M14,> 100 µM (inactive)
same,GI50,SW-620,> 100 µM (inactive)
same,GI50,A498,> 100 µM (inactive)
same,GI50,EKVX,> 100 µM (inactive)
same,GI50,OVCAR-3,> 100 µM (inactive)
same,GI50,COLO 205,68.5 µM (inactive)
same,GI50,U-251,> 100 µM (inactive)
CN(CCCNC(=O)c1cn(C)c2c1ccc1cc(Cl)ccc12)CCCNC(=O)c1cn(C)c2c1ccc1cc(Cl)ccc12,GI50,TK-10,2.47 µM (inactive)
same,GI50,SF-268,1.72 µM (inactive)
same,GI50,NCI-H226,20.6 µM (inactive)
same,GI50,HOP-92,3.6 µM (inactive)
same,GI50,CAKI-1,2.3 µM (inactive)
same,GI50,CCRF-CEM,1.23 µM (inactive)
same,GI50,Malme-3M,2.52 µM (inactive)
same,GI50,SNB-19,2.39 µM (inactive)
same,GI50,UACC-62,1.84 µM (inactive)
same,GI50,DU-145,1.89 µM (inactive)
same,GI50,PC-3,1.78 µM (inactive)
same,GI50,HCT-15,1.78 µM
same,GI50,SK-MEL-5,4.99 µM (inactive)
same,GI50,HL-60,0.914 µM (active)
same,GI50,IGROV-1,1.46 µM (inactive)
same,GI50,NCI-H460,1.56 µM (inactive)
same,GI50,HOP-62,1.65 µM (inactive)
same,GI50,SR,2.54 µM (inactive)
same,GI50,RXF 393,1.3 µM (inactive)
same,GI50,SF-539,1.99 µM (inactive)
same,GI50,K562,1.97 µM (inactive)
same,GI50,KM12,1.72 µM (inactive)
same,GI50,T47D,1.8 µM (inactive)
same,GI50,UACC-257,2.19 µM (inactive)
same,GI50,A549,2.06 µM (inactive)
same,GI50,SK-MEL-2,1.69 µM (inactive)
same,GI50,NCI-H23,3.91 µM (inactive)
same,GI50,HCC 2998,1.2 µM (inactive)
same,GI50,SK-OV-3,1.82 µM (inactive)
same,GI50,NCI-H522,1.75 µM (inactive)
same,GI50,HT-29,2.05 µM (inactive)
same,GI50,Hs-578T,1.83 µM (inactive)
same,GI50,MDA-N,2.23 µM (inactive)
same,GI50,BT-549,8.99 µM (inactive)
same,GI50,MOLT-4,1.73 µM (inactive)
same,GI50,LOX IMVI,1.64 µM (inactive)
same,GI50,786-0,1.65 µM (inactive)
same,GI50,HCT-116,1.88 µM (inactive)
same,GI50,UO-31,1.41 µM (inactive)
same,GI50,MDA-MB-435,1.71 µM (inactive)
same,GI50,MDA-MB-231,1.75 µM (inactive)
same,GI50,SK-MEL-28,1.73 µM (inactive)
same,GI50,ACHN,1.71 µM (inactive)
same,GI50,NCI/ADR-RES,2.16 µM (inactive)
same,GI50,OVCAR-5,3.09 µM (inactive)
same,GI50,SF-295,2 µM (inactive)
same,GI50,OVCAR-8,1.82 µM (inactive)
same,GI50,OVCAR-4,2.52 µM (inactive)
same,GI50,SN12C,1.87 µM (inactive)
same,GI50,M14,1.85 µM (inactive)
same,GI50,SW-620,1.62 µM (inactive)
same,GI50,SNB-75,1.57 µM (inactive)
same,GI50,A498,5.86 µM (inactive)
same,GI50,EKVX,2.33 µM (inactive)
same,GI50,OVCAR-3,1.9 µM (inactive)
same,GI50,COLO 205,1.47 µM (inactive)
same,GI50,U-251,1.71 µM (inactive)
